Test results from ChEMBL document CHEMBL3352016, “Natural hydrazine-containing compounds: Biosynthesis, isolation, biological activities and synthesis” (Bioorg Med Chem, 2014).

Tests used:
[1] = Anticancer activity against human MDA231 cells; type: functional, cell-based; settings: MDA-MB-231
[2] = Anticancer activity against human HCT116 cells; type: functional, cell-based; settings: HCT-116
[3] = Inhibition of Escherichia coli DnaG primase
[4] = Anticancer activity against human Caco2 cells; type: functional, cell-based; settings: Caco-2
A-375 = assay: Anticancer activity against human A375 cells; type: functional, cell-based

With CCCC/C=C\N(NC(C)=O)C(=O)CCC1=CCOC1=O [GERALCIN B] as the molecule, how does the IC50 [1] read?
Its IC50 is 5 µM.

For CCCC/C=C\N(NC(C)=O)C(=O)C(CO)/N=[N+](\[O-])CCCCCC (stereo not given) [GERALCIN C], which IC50 [2] is on record?
Its IC50 is 800 nM.

What about the IC50 [3] of the same molecule?
The IC50 was 700 µM.

For COc1cc(/C=C/C(=O)NCCc2c[nH]c3ccc(O)cc23)ccc1O [N-FERULOYL SEROTONIN], which IC50 [4] is on record?
The IC50 was 81 µM.

With N[C@@H](CCC(=O)NNc1ccc(O)cc1)C(=O)O [XANTHODERMINE] as the molecule, how does the IC50 (A-375) read?
Its IC50 is 1600 nM.
